# Reference: US12128010B2, “Semifluorinated compounds and their compositions” (NOVALIQ GMBH, priority 2015, dated 2024)
# “Also recorded” adds a separate entry of the source.
# Columns and labels:
# [1] = Differential Scanning Calorimetry of mixtures; type: physicochemical
# Procedure: Differential Scanning calorimetry (DSC 1, Mettler Toledo, Greifensee, Switzerland) is used to characterize structure and phase behavior of mixtures of CF3(CF2)5—CH(CH3)—(CH2)5—CH3 and CF3(CF2)5(CH2)7CH3. DSC was employed to obtain data on transitions by temperature rising scans with heating rate of 1° C./min. Sealed standard aluminum crucibles (40 μl, Mettler Toledo) were used.
# Rabbit corneas = assay: Ex Vivo Eye Irritation Test (EVEIT), corneal healing
# Procedure: Anim., 2008 (36) p 25-32; and N. Schrage et al, Graefes Arch Clin Exp Ophthalmol 2012 (250), 1330-1340).
# Method. Rabbit corneas were obtained and placed in an artificial anterior ocular chamber which was gently filled with serum-free minimal essential medium (Eagle's MEM) containing Earle's salts and HEPES buffer for nutrition. The medium was contstantly replenished by a micropump to imitate the physiological condition of the eye. The culture chambers were held at 32° C. under normal air without supplementary CO2 and >95% relative humidity. Five corneas per test substance (n=5) were used except for the postive control with which two corneas (n=2) were tested.
# After 12 h of stabilization in the culture chamber, the corneas were evaluated by microscopy and corneas with intact epithelium and without opacities were selected. Four small abrasions (2.3-4.3 mm^2) were applied to the surface of the selected corneas with a cornea drill. All defects were monitored by fluorescein sodium staining (0.17% aq. solution) and microscopy.
# The test substances were administered one hour after induction of the corneal erosion and were applied six times daily onto the apex of the corneas (30-50 μL every four hours). A soft-tipped cannula, with continuous suction was placed on the lowest part of the corneoscleral region within the culturing chamber to remove any excess fluid. Experiments were terminated after 3 days of application. Biomicroscopic images of the corneas were taken daily to document the corneal healing process using a phase-contrast microscope integrated camera (KY-F1030U, JVC, (Bad Vilbel, DE) mounted on a Z16 APO Microscope (Wetzlar, DE)). All defects were monitored by fluorescein sodium stains (0.17% aq. solution) with yellow green fluorescence indicating the areas of epithelial defects. Erosion sizes were determined using a software tool of the microscope (DISKUS). At the end of the 3 days, the experiment was terminated and all corneas were fixed in 3.7% formaldehyde and stained with a hematoxylin-eosin dye for microscopic evaluation. To monitor the metabolic activity of the cornea, glucose and lactate concentrations were photometrically quantified in the outflow medium from the artificial anterior chambers.
# [2] = Evaporation time of mixtures; type: physicochemical; settings: FIG. 1, in words
# Procedure: The evaporation time of mixtures of the semifluorinated alkane CF3(CF2)5(CH2)7CH3 and CF3(CF2)5—CH(CH3)—(CH2)5—CH3 was evaluated. A droplet of 10 μL volume of each mixture was placed on a glass surface at room temperature. Time until evaporation was recorded by video-monitoring.
# [3] = Refractive index of mixtures; type: physicochemical; settings: FIG. 2, in words
# Procedure: The refractive index of the mixtures was also determined. For topically applied ophthalmic compositions, the refractive index of the composition should preferably similar, or adapted to that of the eye and lens, for instance as close to that of physiological tear fluid as possible. If the refractive index of a composition is not similar, when applied to the surface of the eye, a patient may experience blurring or impaired vision. […] By varying the amount of this semifluorinated alkane in the mixture, it may also be feasible to adapt the composition to the requirements of the intended ophthalmic use, for instance adapting to a patient with an altered tear fluid composition and refractive index, due to an eye condition and/or age.
# [4] = hematoxylin-eosin stained corneas after 3 days of application
molecule,measurement,setting,value
"CCCCCCCCC(F)(F)C(F)(F)C(F)(F)C(F)(F)C(F)(F)C(F)(F)F [Composition 0, 1-perfluorohexyloctane]",Low temperature transition Endset,"[1]; DSC, heating rate 1° C./min",−38.32 °C
same,Low temperature transition Onset,"[1]; DSC, heating rate 1° C./min",−45.47 °C
same,Low temperature transition Peak,"[1]; DSC, heating rate 1° C./min",−40.37 °C
same,Low temperature transition ΔH,"[1]; DSC, heating rate 1° C./min",-0.69 J/g
same,Melting transition Endset,"[1]; DSC, heating rate 1° C./min",−2.14 °C
same,Melting transition Onset,"[1]; DSC, heating rate 1° C./min",−6.33 °C
same,Melting transition Peak,"[1]; DSC, heating rate 1° C./min",−4.53 °C
same,Melting transition ΔH,"[1]; DSC, heating rate 1° C./min, label = wt % CF3—(CF2)5—CH(CH3)—(CH2)5—CH3 in mixture with CF3(CF2)5(CH2)7CH3",-36.57 J/g
benzalkonium chloride [0.01% BAC],"Corneal Erosion Size, Mean (SD)",Rabbit corneas; Day 0 (before application),11.57 (0.86) mm^2
same,"Corneal Erosion Size, Mean (SD)","Rabbit corneas; Day 1, applied six times daily, 30-50 μL",5.91 (0.28) mm^2
same,"Corneal Erosion Size, Mean (SD)","Rabbit corneas; Day 2, applied six times daily, 30-50 μL",8.74 (7.6) mm^2
same,"Corneal Erosion Size, Mean (SD)","Rabbit corneas; Day 3, applied six times daily, 30-50 μL",17.46 (6.43) mm^2
same,Day 3 Histological Observations: Descemet membrane and endothelium,Rabbit corneas; [4],Descemet membrane is present with intact endothelium
same,"Day 3 Histological Observations: epithelium, stroma, corneal structure",Rabbit corneas; [4],Severe alterations of the superficial cornea with disintegration of; also recorded: Reduced staining of background substance indicating chemical
same,Day 3 Histological Observations: keratocytes,Rabbit corneas; [4],Severe reduction in number of keratocyte cells which also appear
same,course of the induced epithelial erosions/lesions,"Rabbit corneas; over the three days of the experiment, in words",progressive increase
"CCCCCCC(C)C(F)(F)C(F)(F)C(F)(F)C(F)(F)C(F)(F)C(F)(F)F (centres unmarked) [CF3—(CF2)5—CH(CH3)—(CH2)5—CH3, 2-perfluorohexyloctane]",effect on melting enthalpy when present in a mixture with F6H8,[1]; in words,decreased
same,effect on melting temperature when present in a mixture with F6H8,[1]; in words,significant reduction in the melting temperature
same,effect of increasing percentage on evaporation time of the mixtures,[2],decreases the evaporation time
same,effect of increased content on refractive index of the mixtures,[3],increasing refractive index value
